From US7759526B2 (priority 2000, dated 2010)
Entries after “also recorded” stand apart in the source; their conditions may differ.

Assays:
[1] = system: arachidonic acid-induced swelling of the ear; experiment: Arachidonic acid-induced ear inflammation in the mouse; assay type: in vivo
Description: Mice (female Sabra) were treated with […] A′ A (in 5 μl EtOH) dispersed on the inner surface of one of the ears. The other ear was treated with 5 μl of EtOH. Ear swelling was assessed by measuring ear thickness with a dial thickness gauge (Mitutoyo, Japan) just before treatment and 30 min after A; A application. The drugs (40 mg/kg for the cannabinoids and 20 mg/kg for indomethacin) were injected i.p. 60 min before the A′ A treatment. *** indicates p<0.001.
The effect of various doses of CBD-7-oic acid (3a) (Example 28), and of CBD-DMH-7-oic acid (3b) (Example 28) and of indomethacin (20 mg/kg) after arachidonic acid-induced swelling of the ear are shown in FIG. 2. The effects were measured over 75 min after the administration of arachidonic acid.
(§1) Female Sabra mice (2 months old, Harlan-Sprague Dawley, Jerusalem) were used for a series of tests and for the assays for inflammation and peripheral pain. Groups of 5 mice were used in each experiment. Compounds 2a, 2b, 3a and 3b were dissolved in vehicle (ethanol:emulphor:saline=1:1:18) and injected intraperitoneally (i.p.) in volumes of 0.1 ml/10 g in mice as previously described (Hanus et al., 1999).
Ear inflammation was measured by assessing ear tissue swelling after topical application of arachidonic acid. […] The opposite ear served as control (5 μl ethanol). Ear thickness was determined (in 0.01 mm units) every 15 min for 90 min starting immediately after arachidonic acid application using a dial thickness gauge (Mitutoyo, Japan).

serum TNFα = experiment: Serum TNFα in mice after ip injection of LPS; assay type: in vivo
Description: This anti TNFα effect is also seen in vivo. High levels of TNFα appear in serum of mice after ip injection of 5 mg/kg/mouse lipopolysaccharide (LPS). […] At the lower dose of 0.5 mg/kg 80% suppression of TNFα level was observed. […] Thus 7-hydroxy-CBD (2a) in doses of 10 μg/kg i.p. suppressed serum TNFα in mice (30%).

[2] = system: formalin-induced paw licking; experiment: Formalin test for peripheral pain; assay type: in vivo, mouse; details: mice; 20 mg/kg; 5 min recorded 30 min after formalin (3.2%)
Description: Thus mice injected with formalin (3.2% dissolved in saline) licked their paws 8±2 times over 5 min, recorded 30 min after the formalin administration.
as §1
Pain mediated by the peripheral nervous system, was tested in the ‘formalin test’ for cutaneous (peripheral) pain (Tjolson et al., 1992; Calignano et al., 1998; Jaggar et al, 1998). The compound tested (or vehicle) was injected i.p. Formalin (3.2% dissolved in saline) was injected s.c. in the plantar surface of the hind paw of a mouse (in 20 μl volumes) 90 min after the drug. Immediately after formalin administration nociception was assessed (every 5 min for 1 hr) by the number of times the animal licks for formalin-injected paw.

[3] = system: uptake of endocannabinoids into neuronal cells; experiment: Uptake of endocannabinoids into neuronal cells; assay type: cell-based; details: preliminary data
[4] = Antianxiety and anticonvulsive effects (preliminary data)
CB1 = target: T1, CB1 (Rattus norvegicus, UniProt P20272); details: previously described probe; cited from earlier work
T1 construct: synaptosomal membranes prepared from rat brains; from tissue; host or cells: rat brain synaptosomal membranes
T1 sequence (P20272 whole entry): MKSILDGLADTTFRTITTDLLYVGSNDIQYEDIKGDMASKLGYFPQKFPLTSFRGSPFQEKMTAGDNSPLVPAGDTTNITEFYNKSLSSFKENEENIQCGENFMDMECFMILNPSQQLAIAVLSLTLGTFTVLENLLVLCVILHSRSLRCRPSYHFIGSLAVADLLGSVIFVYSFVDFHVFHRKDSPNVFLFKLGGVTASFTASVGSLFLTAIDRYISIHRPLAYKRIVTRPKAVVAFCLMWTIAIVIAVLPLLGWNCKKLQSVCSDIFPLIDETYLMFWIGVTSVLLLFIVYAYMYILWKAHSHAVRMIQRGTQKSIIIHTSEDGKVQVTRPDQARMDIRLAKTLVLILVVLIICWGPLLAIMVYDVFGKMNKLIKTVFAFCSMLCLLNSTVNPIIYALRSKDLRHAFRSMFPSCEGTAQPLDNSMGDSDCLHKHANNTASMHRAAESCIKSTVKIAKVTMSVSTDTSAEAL

[5] = system: human HL-60 promyelecytic leukemia cells; experiment: Apoptosis of HL-60 cells, Hoechst 33258 stain; assay type: cell-based; details: for % apoptosis / programmed cell death (apoptosis): HL-60; for % apoptosis: 24 h; for programmed cell death (apoptosis): dose dependent 0.1 μg/ml to 8 μg/ml
Description: The method used, namely determination by the fluorescent Hoechst 33258 stain, is described by T. R. Chen (Cell Res. 104, 255-262, 1977). A Table of results is appended in following Table D.

CB2 = CB2 (Homo sapiens, UniProt P34972); details: cited from earlier work
Sequence of CB2 (P34972 whole entry, species assumed): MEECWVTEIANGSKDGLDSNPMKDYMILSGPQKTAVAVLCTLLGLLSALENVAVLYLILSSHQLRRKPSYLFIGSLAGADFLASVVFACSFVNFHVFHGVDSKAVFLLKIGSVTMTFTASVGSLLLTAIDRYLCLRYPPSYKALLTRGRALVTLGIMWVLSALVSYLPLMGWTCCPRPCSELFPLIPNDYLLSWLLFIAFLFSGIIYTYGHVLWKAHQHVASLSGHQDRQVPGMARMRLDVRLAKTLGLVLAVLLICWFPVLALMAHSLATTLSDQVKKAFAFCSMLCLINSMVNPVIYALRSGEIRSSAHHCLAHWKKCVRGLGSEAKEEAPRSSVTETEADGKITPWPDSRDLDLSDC

[6] = system: tetradecanoylphorbolacetable (TPA) induced erythema of mouse ear; details: application of a 100 μg/ml solution; Formukong et al. 1988; cited from earlier work
[7] = system: phenylbenzoquinone writhing; details: Formukong et al. 1988; cited from earlier work
[8] = system: TNFα production by Thioglycollate-elicited macrophages (TGMMΦ); experiment: TNFα production by thioglycollate-elicited macrophages; assay type: cell-based, murine; details: TGMΦ; for % inhibition of TNFα titer: 24 hrs
Description: (§2) The inhibition is dose dependent (10 μg-0.001 μg/ml). Tables of results are attached in following Tables A and B.
(§3) The experimental methods used have been described in Gallily et al. (Eur. J. Pharmacol. 406, R5-R7, 2000), Avron and Gallily (J. Leukocyte Biol. 57, 264-268, 1995) and Gallily et al. (J. Pharmacol. Exp. Ther. 283, 918-924, 1997).

[9] = system: TNFα production by RAW 264.7 mouse monocytic cell line; experiment: TNFα production by RAW 264.7 mouse monocytic cell line; assay type: cell-based; design: TNFα Titer S50: unit not given beside the values
Description: as §2, §3

[10] = system: release of reactive oxygen intermediates by monocytic RAW 264.7 cells; experiment: Zymosan-induced release of reactive oxygen intermediates, chemiluminescence; assay type: cell-based
Description: Table of results are attached in following Table C.
as §3

[11] = cannabinoid 40 mg/kg i.p., compared with indomethacin 20 mg/kg i.p.
[12] = cannabinoid 5 mg/kg, compared with indomethacin 20 mg/kg
[13] = cannabinoid 80 mg/kg, compared with indomethacin 20 mg/kg

SMILES: C=C(C)[C@@H]1CCC(CO)=C[C@H]1c1c(O)cc(CCCCC)cc1O [Compound 2a, 7-Hydroxy CBD]
- antiinflammatory effect on arachidonic acid-induced ear swelling [1, 11]: less active than the potent antiinflammatory drug indomethacin
- suppression of serum TNFα (serum TNFα; 10 μg/kg i.p.): 30%
- paw licking, late phase of formalin-induced pain behavior [2]: fully blocked the licking
- uptake of endocannabinoids into neuronal cells [3]: prevent the uptake of endocannabinoids into neuronal cells
- antianxiety and anticonvulsive effects [4]: have antianxiety and anticonvulsive effects

SMILES: CCCCCCC(C)(C)c1cc(O)c2c(c1)OC(C)(C)[C@@H]1CC[C@@H](CO)C[C@@H]21 [[^3H]HU-243]
- Ki (CB1): 45 ± 7 pM

SMILES: C=C(C)[C@@H]1CCC(C)=C[C@H]1c1c(O)cc(CCCCC)cc1O [CBD, Cannabidiol]
- % apoptosis ([5]; 1 μg/ml, no irradiation): 19%
- % apoptosis ([5]; 1 μg/ml, γ-irradiation 800 rad): 28%
- % apoptosis ([5]; 4 μg/ml, no irradiation): 33%
- % apoptosis ([5]; 4 μg/ml, γ-irradiation 800 rad): 45%
- % apoptosis ([5]; 8 μg/ml, no irradiation): 48%
- % apoptosis ([5]; 8 μg/ml, γ-irradiation 800 rad): 85%
- programmed cell death (apoptosis) [5]: high rate of programmed cell death
- apoptosis, synergism with γ ray irradiation ([5]; HL-60 irradiated by γ ray (800 rad) and treated with cannabinoid): up to 85%
- uptake of endocannabinoids into neuronal cells [3]: prevent the uptake of endocannabinoids into neuronal cells
- binding to cannabinoid receptor CB2 (CB2): does not bind
- inhibition of the inflammation response [6]: 92%
- analgesic potency compared with aspirin [7]: much more potent than aspirin

SMILES: C=C(C)[C@@H]1CCC(C(=O)O)=C[C@H]1c1c(O)cc(C(C)(C)CCCCCC)cc1O [Compound 3b, 7-Nor-carboxy CBD DMH]
- antiinflammatory effect on arachidonic acid-induced ear swelling [1, 12]: fully suppressed the inflammation; also recorded: as potent as indomethacin
- antiinflammatory effect on arachidonic acid-induced ear swelling [1, 11]: essentially equivalent to that of indomethacin
- antiinflammatory effect on arachidonic acid-induced ear swelling [1, 13]: less effective than indomethacin
- TNFα Titer (S50) After 24 hrs. ([8]; LPS + 0.01 μg/ml): 535
- % inhibition of TNFα titer ([8]; LPS + 0.01 μg/ml): 36%
- TNFα Titer (S50) After 24 hrs. ([8]; LPS + 1 μg/ml): 501
- % inhibition of TNFα titer ([8]; LPS + 1 μg/ml): 40%
- TNFα Titer (S50) After 24 hrs. ([8]; LPS + 5 μg/ml): 406
- % inhibition of TNFα titer ([8]; LPS + 5 μg/ml): 51%
- TNFα Titer (S50) After 24 hrs. ([8]; LPS + 10 μg/ml): 159
- % inhibition of TNFα titer ([8]; LPS + 10 μg/ml): 81%
- % inhibition of TNFα titer ([9]; LPS + 0.01 μg/ml): 11%
- TNFα Titer S50 ([9]; LPS + 0.01 μg/ml): 5818
- % inhibition of TNFα titer ([9]; LPS + 0.1 μg/ml): 45%
- TNFα Titer S50 ([9]; LPS + 0.1 μg/ml): 357.6
- % inhibition of TNFα titer ([9]; LPS + 1 μg/ml): 63%
- TNFα Titer S50 ([9]; LPS + 1 μg/ml): 2384
- % inhibition of TNFα titer ([9]; LPS + 4 μg/ml): 65%
- TNFα Titer S50 ([9]; LPS + 4 μg/ml): 2300
- % inhibition of TNFα titer ([9]; LPS + 10 μg/ml): 91%
- TNFα Titer S50 ([9]; LPS + 10 μg/ml): 615
- suppression of TNFα level in serum (serum TNFα; 0.5 mg/kg simultaneously with LPS): 80%
- suppression of serum TNFα level (serum TNFα; 0.5 and 5 mg/kg simultaneously with LPS 5 mg/kg ip): suppressed serum TNFα level
- Cherniluminescense peak ([10]; Zymosan + 4 μg/ml): 1524
- Inhibition % of ROI release ([10]; Zymosan + 4 μg/ml): 83%
- Cherniluminescense peak ([10]; Zymosan + 10 μg/ml): 432
- Inhibition % of ROI release ([10]; Zymosan + 10 μg/ml): 95%
- paw licking, late phase of formalin-induced pain behavior [2]: fully blocked the licking
- % apoptosis ([5]; 5 μg/ml, no irradiation): 15%
- % apoptosis ([5]; 5 μg/ml, γ-irradiation 800 rad): 25%
- % apoptosis ([5]; 10 μg/ml, no irradiation): 27%
- % apoptosis ([5]; 10 μg/ml, γ-irradiation 800 rad): 58%
- programmed cell death (apoptosis) [5]: high rate of programmed cell death
- antianxiety and anticonvulsive effects [4]: have antianxiety and anticonvulsive effects

SMILES: C=C(C)[C@@H]1CCC(C)=C[C@H]1c1c(O)cc(C(C)(C)CCCCCC)cc1O [Compound 1b, CBD-DMH, reference compound]
- uptake of endocannabinoids into neuronal cells [3]: prevent the uptake of endocannabinoids into neuronal cells

SMILES: C=C(C)[C@@H]1CCC(C(=O)O)=C[C@H]1c1c(O)cc(CCCCC)cc1O [Compound 3a, 7-Nor-carboxy CBD]
- antiinflammatory effect on arachidonic acid-induced ear swelling [1, 12]: less active than 3b
- antiinflammatory effect on arachidonic acid-induced ear swelling [1, 11]: essentially equivalent to that of indomethacin
- antiinflammatory effect on arachidonic acid-induced ear swelling [1, 13]: less effective than indomethacin
- Cherniluminescense peak ([10]; Zymosan + 4 μg/ml): 4139
- Inhibition % of ROI release ([10]; Zymosan + 4 μg/ml): 31%
- Cherniluminescense peak ([10]; Zymosan + 10 μg/ml): 1041
- Inhibition % of ROI release ([10]; Zymosan + 10 μg/ml): 83%
- paw licking, late phase of formalin-induced pain behavior [2]: fully blocked the licking
- antianxiety and anticonvulsive effects [4]: have antianxiety and anticonvulsive effects

SMILES: C=C(C)[C@@H]1CCC(CO)=C[C@H]1c1c(O)cc(C(C)(C)CCCCCC)cc1O [Compound 2b, 7-Hydroxy CBD-DMH]
- antiinflammatory effect on arachidonic acid-induced ear swelling [1, 11]: less active than the potent antiinflammatory drug indomethacin
- paw licking, late phase of formalin-induced pain behavior [2]: fully blocked the licking
- uptake of endocannabinoids into neuronal cells [3]: prevent the uptake of endocannabinoids into neuronal cells
- antianxiety and anticonvulsive effects [4]: have antianxiety and anticonvulsive effects
